Assay type in all cases: in vivo
For one data set, the system named is Agriotes lineatus. Briefly: Barley seed treatment, wireworm (Agriotes lineatus) corrected mortality and plant height (Example 3). The settings on record: for Plant height in cm / % Increase plant height in comparison to infested control (6DAI) observed: 6DAI; for Plant height in cm: barley, infested control 9.3, not infested control 14.9; for % Corrected mortality (20 DAI) observed: 20 days after infestation, barley seed treatment. The procedure: The products FS400 and NOVODOR 3% FC were diluted with the addition of water to have the dose of active ingredient for 30 seeds plusan overage of 10%. These extra 10% were needed to compensate for losses of active ingredient during the seed treatment process. 30 seeds of barley were placed in a spheric glass beaker, and the application solution was added. The beaker was swung to mix the seeds with the solution. After drying two seeds were sown per pot. 10 replicates per treatment were prepared. 5 days after sowing the pots were infested with 10 wireworms (Agriotes lineatus, approx. 20 mm length). 20 days after infestation (20DAI), the corrected mortality of the wireworms was assessed based on the control treatment. 6 days after infestation (6DAI) the plant height was measured.

In another data set the test system is Diabrotica balteata. Nature of the data set: Corn seed treatment, Diabrotica balteata larvae mortality and plant damage (Example 2). The settings on record: 6 days after infestation, alone or combined. The procedure:
The products FS400 and NOVODOR 3% FC were diluted with the addition of water to have the dose of active ingredient for 30 seeds plus an overage of 10%. These extra 10% were needed to compensate for losses of active ingredient during the seed treatment process. 30 seeds of corn were placed in a spheric glass beaker, and the application solution was added. The beaker was swung to mix the seeds with the solution. After drying, four seeds were sown per pot. 5 replicates per treatment were prepared. 14 days after sowing the pots were infested with 5 second instar larvae of Diabrotica balteata. 6 days after infestation (6DAI) the mortality of larvae and the damage on the plants was assessed.

The next data set deals with Spodoptera littoralis. Nature of the data set: Foliar spray on soybean plants, Spodoptera littoralis larvae mortality (Example 1). Particulars: isocycloseram 0.4 ppm (0.2 g AI/ha), Bt1 45 ppm (22.5 g AI/ha), alone or combined, second instar larvae; for % mortality (3DAA) Observed Results: 3 days after application; for % mortality (5DAA) Observed Results: 5 days after application. The procedure: The products VIRANTRA SC400 and COSTAR WG 18 are diluted with the addition of water to obtain the concentrations of active ingredients gathered in Table 1 and Table 2, and were applied on soybean plants (planted in pots; ˜8 plants per pot, 5 pots per treatment), in using a turn table application machine (500 l/ha). After drying 10 soybean plants were cut and placed in a petri dish (diameter: 14.5 cm) containing 3 wet filter papers (4 ml water); 3 replicates per concentration were done. Plants were infested with 10 Spodoptera littoralis larvae (second instar of larvae) and petri dish was covered with a round cotton tissue and closed with a plastic lid. Three and five days after application mortality was assessed.

The mark [1] stands for this setting: isocycloseram 0.25 μg/seed (6 g/100 kg seed), alone or + Bt2 5 μg/seed.
Where [2] appears, read: isocycloseram 1.25 μg/seed (24 g/100 kg seed), alone or + Bt2 5 μg/seed.
Setting [3] is: isocycloseram 0.01 mg/seed (3 g/100 kg seeds), Bt2 0.03 mg/seed (10 g/100 kg seeds).
The mark [4] stands for this setting: isocycloseram 0.03 mg/seed (10 g/100 kg seeds), Bt2 0.1 mg/seed (30 g/100 kg seeds).
Setting [5] is: Bt2 alone 5 μg/seed (120 g/100 kg seed).

`CCN1OCC(NC(=O)c2ccc(C3=NOC(c4cc(Cl)c(F)c(Cl)c4)(C(F)(F)F)C3)cc2C)C1=O` (stereo not drawn) [isocycloseram]: the results for the “Plant height in cm” value in the data set with Agriotes lineatus (setting [1]) and in the data set on Agriotes lineatus (setting [2]) were 10.2 cm and 10.6 cm, respectively. Moreover, the “% Increase plant height in comparison to infested control (6DAI) observed” value was 10% in the data set on Agriotes lineatus (setting [1]) and 14% in the data set on Agriotes lineatus (setting [2]). Moreover, the “% Corrected mortality (20 DAI) observed” value worked out at 17% with Agriotes lineatus (isocycloseram 0.25 μg/seed (6 g/100 kg seed), alone or + Bt2 5 μg/seed (120 g/100 kg seed)) and 25% in the data set on Agriotes lineatus (isocycloseram 1.25 μg/seed (24 g/100 kg seed), alone or + Bt2 5 μg/seed (120 g/100 kg seed)). Also, the “% Mortality (6DAI) observed” value with Diabrotica balteata (setting [3]) came out at 33%; in the data set with Diabrotica balteata (setting [4]), 58%. Also, the figures for the “% Plant damage reduction (6DAI) observed” value in the data set on Diabrotica balteata (setting [3]) and in the data set with Diabrotica balteata (setting [4]) were 33% and 50%, respectively. The “% mortality (3DAA) Observed Results” value with Spodoptera littoralis was determined as 0%. The “% mortality (5DAA) Observed Results” value in the data set on Spodoptera littoralis turned out to be 7%.
Take “Bacillus thuringiensis var. kurstaki strain SA-12 [Bt1]”: in the data set on Spodoptera littoralis, the “% mortality (3DAA) Observed Results” value was determined as 20% and the “% mortality (5DAA) Observed Results” value turned out to be 30%.
Turning to “Bacillus thuringiensis var. tenebrionis strain NB-176 [Bt2]”, in the data set on Agriotes lineatus (setting [5]), the “% Increase plant height in comparison to infested control (6DAI) observed” value is reported as 0%, the “Plant height in cm” value was found to be 9 cm and the “% Corrected mortality (20 DAI) observed” value was 0%. Moreover, in the data set with Diabrotica balteata (setting [3]), the “% Mortality (6DAI) observed” value is listed as 0% and the “% Plant damage reduction (6DAI) observed” value is −6%. In the data set on Diabrotica balteata (setting [4]), the “% Mortality (6DAI) observed” value is 0% and the “% Plant damage reduction (6DAI) observed” value amounted to 11%.

These data come from US20250268260A1, “PESTICIDAL COMPOSITIONS INCLUDING AN ISOXAZOLINE COMPOUND” (SYNGENTA CROP PROTECTION AG, priority 2022, published 2025).
